We go through seven compounds from patent US5445951A, “Regioselective enzymatic deacylation of sucrose esters in anhydrous organic media” (priority 1993, dated 1995).

Data set [1] concerns the target T1, alcalase (Bacillus licheniformis, UniProt P00780).
T1 construct: purchased Novo Nordisk (gift)
T1 sequence (P00780 106-379): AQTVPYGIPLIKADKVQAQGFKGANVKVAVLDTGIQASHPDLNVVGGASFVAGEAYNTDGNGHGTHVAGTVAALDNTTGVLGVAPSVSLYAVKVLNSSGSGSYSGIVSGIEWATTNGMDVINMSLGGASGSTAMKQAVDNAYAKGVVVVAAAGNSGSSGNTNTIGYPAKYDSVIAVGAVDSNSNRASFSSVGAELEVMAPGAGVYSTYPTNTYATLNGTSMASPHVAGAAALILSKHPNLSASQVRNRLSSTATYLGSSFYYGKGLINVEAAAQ
Kind of data set: Solvent effect on alcalase catalyzed deacetylation of SOA. In kind it is biochemical. The conditions noted are these: 24 hrs; for SheptaA: total of 1'-OH and 6'-OH heptaacetates; for SOA / ShexaA: solvent as labelled. The procedure: (§1) Identical enzyme catalyzed SOA deacetylations were run in numerous anhydrous solvents. After 24 hrs incubation an aliquot was analyzed by HPLC.
Enzyme Precipitation. Alcalase was prepared by adding 37.5 ml cold acetone (-20° C.) to 25 ml of alcalase solution as supplied by Novo. The aqueous acetone was decanted and the residue dissolved in 25 ml of pH 9.0 glycine--NaOH buffer. The pH of this solution was adjusted to 9.0 with a few drops of dilute NaOH solution. Cold acetone (37.5 ml at -20° C.) was added to the buffered alcalase solution and the precipitate collected by filtration on a medium porosity glass funnel and dried overnight at 2 millitorr. The resulting pellet was ground to a fine powder and stored at 4° C. over saturated aqueous potassium carbonate (RH: 43%) for 24 hrs.
(§2) Enzyme and Solvent Screening for SOA Deacetylation. A scintillation vial was charged successively with 100 mg of powdered enzyme as received or prepared as described and 1.0 ml of 20 mM sucrose octaacetate (SOA) dissolved in an organic solvent. Following a 5 sec sonication, the vial was incubated in a controlled-temperature shaker at 45° C. and 300 RPM for 24 hrs. A 200 μl aliquot of the reaction mixture was withdrawn and centrifuged. The supernatant was collected and evaporated under a stream of N2. The residue was reconstituted in 200 μl of acetonitrile and 10 μl of this solution was analyzed by HPLC.

Data set [2] has as its system lipase AY 30 deposited on Hyflo Super Cell. Kind of data set: Solvent effect on lipase AY 30 deposited on Hyflo Super Cell catalyzed deacetylation of SOA. It counts as biochemical, Candida cylindracea. The conditions noted are these: immobilized lipase AY 30, 24 hrs. How it is done:
(§3) Alcalase and lipase AY 30 were deposited on Hyflo Super Cell and used as catalysts for SOA deacetylation reactions in several anhydrous solvents.
(§4) Enzyme immobilization. The pH of a solution of 900 mg of buffered alcalase in 18 ml of water was adjusted to 9.0 with dilute NaOH. Hyflo super cell (6 g) was added and the slurry thoroughly mixed. […] Lipase AY 30 was immobilized in the same manner except that the protein solution was adjusted to pH 7.0 with sodium phosphate.
as §2

Data set [3] relates to lipase AY 30. Kind of data set: Effect of the solvent on lipase AY 30 SOA deacetylation. It counts as biochemical, Candida cylindracea. The conditions noted are these: lipase AY 30, solvent as labelled, 24 hrs. How it is done: as §1, §2
The conditions of data set [4]: n-octanol/water, cited from earlier work.
Data set [5] has as its system proleather. As to the kind of experiment: Solvent effect on proleather catalyzed deacetylation of SOA. It counts as biochemical, Bacillus subtilis. The following applies: 24 hrs; for SheptaA: total of 1'-OH and 6'-OH heptaacetates; for SOA / ShexaA: solvent as labelled. How it is done: as §1
(§5) The pH of commercial powdered enzymes was adjusted in the following way: The enzyme (3 g) was dissolved in 25 ml of an appropriate buffer and the pH adjusted with dilute NaOH or citric/phosphoric acid solution. Cold acetone (37.5 ml at -20° C.) was added and the precipitate collected on a medium porosity glass funnel and dried overnight at 2 millitorr. The protein pellet was ground to a fine powder and equilibrated at 4° C. over saturated aqueous potassium carbonate (RH: 43%) for 24 hrs.
as §2

Data set [6] concerns lipase AP 12. Kind of data set: Solvent effect on lipase AP 12 catalyzed deacetylation of SOA. It counts as biochemical, Aspergillus niger. The following applies: lipase AP 12, solvent as labelled, 24 hrs. How it is done:
as §1, §5, §2

Data set [7] concerns lipase AY 30. Kind of data set: Effect of the solvent on lipase AY 30 catalyzed deacylation of SOP. For SheptaP's ([…]): HPLC peak 8.2 min. The following applies: for ShexaP (4.2 min) / SheptaP's (8.9 min) / SheptaP's (9.4 min) / SheptaP's ([…]): lipase AY 30, 24 hrs; for ShexaP (4.2 min): HPLC peak 4.2 min; for SheptaP's (8.9 min): HPLC peak 8.9 min; for SheptaP's (9.4 min): HPLC peak 9.4 min; for SheptaP's ([…]): HPLC peak […]; for SOA: lipase AY 30, solvent as labelled, 200 mM butanol, 24 hrs, peak 21.4 min. It counts as biochemical, Candida cylindracea. The procedure:
Identical SOP deacylations were performed with lipase AY 30 or protease type XXIII in numerous anhydrous organic solvents, as shown in Tables 12 and 13.
as §2, with “Solvent” for “Enzyme and Solvent”, “screening” for “Screening”, “SOP deacylation.” for “SOA Deacetylation.”, “lipase AY 30” for “powdered enzyme as received”, “protease type XXIII” for “prepared”, “octapropionate (SOP) and 200mM butanol” for “octaacetate (SOA)”

Data set [8] has as its system alcalase deposited on Hyflo Super Cell. As to the kind of experiment: Solvent effect on alcalase deposited on Hyflo Super Cell catalyzed deacetylation of SOA. It counts as biochemical, Bacillus licheniformis. The following applies: immobilized alcalase, 4 hour incubation; for SheptaA: total of 1'-OH and 6'-OH heptaacetates. The procedure:
as §3, §4
Enzyme and Solvent Screening for SOA Deacetylation. A scintillation vial was charged successively with 100 mg of powdered enzyme as received or prepared as described and 1.0 ml of 20 mM sucrose octaacetate (SOA) dissolved in an organic solvent. […] A 200 μl aliquot of the reaction mixture was withdrawn and centrifuged. The supernatant was collected and evaporated under a stream of N2. The residue was reconstituted in 200 μl of acetonitrile and 10 μl of this solution was analyzed by HPLC.

Several values for one entry are separate records, joined by “and”; a condition that tells them apart may be missing. Identical values can stand only once. Like-named read-outs stand apart in the source and are kept apart here.

The log P is a log measure of how a compound divides between an organic and an aqueous phase. In data set [1], `CCCCOC(C)=O` [n-butyl acetate] had a SheptaA of 2.4%, an SOA of 97.6% and a ShexaA of 0%. For the same compound, in data set [2], the SOA is listed as 97.6% and the SheptaA is recorded as 2.4%. Also, in data set [3], the SOA was 95.2%, the SheptaA is 4.6% and the ShexaA came out at 0.4%. For the same compound, the “log P” value in data set [4] (from Laane et al.) is listed as 1.7. In data set [5], this compound showed a SheptaA of 16.5%, an SOA of 81.3% and a ShexaA of 2.2%. In data set [6], the SOA was found to be 97.6%, the SheptaA was determined as 2.4% and the ShexaA turned out to be 0%. Further, in data set [7], the “ShexaP (4.2 min)” value is listed as 0%, the “SheptaP's (8.9 min)” value is given as 0%, the “SheptaP's (9.4 min)” value is reported as 0.7% and the “SheptaP's ([…])” value is listed as 1.4%. Moreover, the SOA in data set [7] was determined as 97.9%.

Consider `CC(C)OC(C)C` [diisopropyl ether], for which, in data set [1], the SheptaA turned out to be 22.3%, the SOA amounted to 75.2% and the ShexaA is listed as 2.5%. In data set [8], this compound displayed an SOA of 89.3%, a ShexaA of 0.8% and a SheptaA of 9.9%. In data set [2], this compound yielded an SOA of 85.7% and a SheptaA of 14.3%. In addition, in data set [3], the SOA was 29.6%, the SheptaA amounted to 39.6% and the ShexaA is on record as 30.9%. The “log P” value in data set [4] is 1.9. In data set [5], this compound returned a SheptaA of 25.9%, an SOA of 70.6% and a ShexaA of 3.5%. In data set [6], the SOA came out at 82.7%, the SheptaA came out at 15.7% and the ShexaA was determined as 1.6%. Further, in data set [7], the “ShexaP (4.2 min)” value is given as 13.0%, the “SheptaP's (8.9 min)” value turned out to be 1.5%, the “SheptaP's (9.4 min)” value worked out at 13.5% and the “SheptaP's ([…])” value came to 17.3%. Moreover, the SOA in data set [7] was 54.7%.

With `COc1ccccc1` [anisole], the SheptaA in data set [1] is given as 3.9%; in data set [8], 2.0%; in data set [2], 1.2%; in data set [3], 9.6%; in data set [5], 19.4%; in data set [6], 3.8%. Further, the SOA is on record as 96.1% in data set [1]; 98.0% in data set [8]; 98.2% in data set [2]; 86.1% in data set [3]; 79.2% in data set [5]; 96.2% in data set [6]. Moreover, the ShexaA came to 0% in data set [1]; 0% in data set [8]; 4.3% in data set [3]; 1.4% in data set [5]; 0% in data set [6]. The “log P” value in data set [4] is given as 2.1.

On to `CCCOCCC` [dipropyl ether], for which the SheptaA came out at 14.5% in data set [1]; 6.5% in data set [8]; 6.6% in data set [2]; 32.4% in data set [3]; 21.5% in data set [5]; 15.9% in data set [6]. Also, the SOA is listed as 83.9% in data set [1]; 92.9% in data set [8]; 93.4% in data set [2]; 51.6% in data set [3]; 75.2% in data set [5]; 81.8% in data set [6]. The ShexaA in data set [1] stood at 1.6%; in data set [8] it was 0.6%; in data set [3] it was 16.0%; in data set [5], 3.3%; in data set [6] it was 2.3%. Further, the “log P” value in data set [4] (from Laane et al.) is recorded as 1.9.

As for `CCCCOCC` [butyl ethyl ether], the SheptaA in data set [1] amounted to 16.9%; in data set [8] it was 2.2%; in data set [2], 4.0%; in data set [3], 21.4%; in data set [6] it was 16.3%. The SOA in data set [1] came out at 81.4%; in data set [8], 97.8%; in data set [2] it was 96.0%; in data set [3], 73.9%; in data set [6], 81.6%. The ShexaA amounted to 1.7% in data set [1], 0% in data set [8], 4.7% in data set [3] and 2.1% in data set [6]. Besides, in data set [4] (from Laane et al.), the “log P” value is 1.9.

In data set [1], `ClC(Cl)(Cl)Cl` [CCl4, carbon tetrachloride] had a SheptaA of 5.2%, an SOA of 94.8% and a ShexaA of 0%. In data set [8], this compound came in with an SOA of 98.6%, a ShexaA of 0% and a SheptaA of 1.4%. In data set [2], this compound returned an SOA of 97.5% and a SheptaA of 2.5%. In addition, in data set [3], the SOA came out at 86.9%, the SheptaA was determined as 10.4% and the ShexaA is on record as 2.7%. For the same compound, in data set [4] (from Laane et al.), the “log P” value was 3.0 and 3.1. In data set [5], this compound had a SheptaA of 9.6%, an SOA of 89.1% and a ShexaA of 1.3%. For the same compound, in data set [6], the SOA worked out at 95.1%, the SheptaA is given as 4.3% and the ShexaA is recorded as 0.6%. In addition, in data set [7], the “ShexaP (4.2 min)” value stood at 0%, the “SheptaP's (8.9 min)” value is 0%, the “SheptaP's (9.4 min)” value is 0.7% and the “SheptaP's ([…])” value is reported as 1.1%. This compound registered an SOA in data set [7] of 98.2%.

Regarding `COC(C)(C)C` [t-butyl methyl ether], in data set [1], the SheptaA was found to be 6.8%, the SOA was determined as 92.6% and the ShexaA was determined as 0.6%. In data set [8], this compound showed an SOA of 97.3%, a ShexaA of 0% and a SheptaA of 2.7%. In data set [2], this compound displayed an SOA of 96.0% and a SheptaA of 4.0%. In addition, in data set [3], the SOA is recorded as 61.6%, the SheptaA turned out to be 28.8% and the ShexaA is 9.6%. Besides, the “log P” value in data set [4] (from Laane et al.) is 1.3. Moreover, in data set [5], the SheptaA stood at 24.4%, the SOA is reported as 72.4% and the ShexaA came out at 3.2%. For the same compound, in data set [7], the “ShexaP (4.2 min)” value worked out at 0.8%, the “SheptaP's (8.9 min)” value is 0.3%, the “SheptaP's (9.4 min)” value is given as 5.9% and the “SheptaP's ([…])” value was found to be 4.3%. Besides, in data set [7], the SOA turned out to be 88.7%.
